Results from ChEMBL document CHEMBL1201862, “PubChem BioAssay data set” (2004).
Active and inactive are the calls of the source.

Assays:
Coagulation factor XII = biological target: T1, Coagulation factor XII (Homo sapiens, UniProt P00748); test: FXIIa inhibitor potency, concentration-response, biochemical (AID 716); assay type: functional
T1 sequence (P00748 whole entry): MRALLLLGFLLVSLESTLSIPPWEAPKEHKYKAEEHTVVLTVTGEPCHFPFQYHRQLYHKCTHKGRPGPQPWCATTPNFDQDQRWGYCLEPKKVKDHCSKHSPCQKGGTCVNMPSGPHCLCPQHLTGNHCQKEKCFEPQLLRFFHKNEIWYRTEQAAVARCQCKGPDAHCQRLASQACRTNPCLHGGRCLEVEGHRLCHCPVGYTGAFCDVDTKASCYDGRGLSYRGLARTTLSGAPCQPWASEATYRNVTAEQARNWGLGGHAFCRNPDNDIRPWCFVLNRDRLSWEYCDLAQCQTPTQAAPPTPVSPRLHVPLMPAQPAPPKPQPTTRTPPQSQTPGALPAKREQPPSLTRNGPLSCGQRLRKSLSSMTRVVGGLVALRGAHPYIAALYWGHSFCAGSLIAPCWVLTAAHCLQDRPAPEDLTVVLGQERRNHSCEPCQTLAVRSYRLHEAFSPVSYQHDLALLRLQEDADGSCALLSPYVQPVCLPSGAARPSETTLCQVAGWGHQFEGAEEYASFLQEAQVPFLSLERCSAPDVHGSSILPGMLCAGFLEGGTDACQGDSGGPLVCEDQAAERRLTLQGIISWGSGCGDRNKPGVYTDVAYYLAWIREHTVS

Streptokinase A = biological target: T2, Streptokinase A (Streptococcus pyogenes serotype M1, UniProt P10520); test: S. pyogenes streptokinase expression inhibitors, potency, dose response, plasminogen activation absorbance, OD405 (AID 1914); assay type: functional, Streptococcus pyogenes M1 GAS;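 note: secreted streptokinase activity via plasminogen activation per viability signal from cell pellet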
T2 sequence (P10520 whole entry): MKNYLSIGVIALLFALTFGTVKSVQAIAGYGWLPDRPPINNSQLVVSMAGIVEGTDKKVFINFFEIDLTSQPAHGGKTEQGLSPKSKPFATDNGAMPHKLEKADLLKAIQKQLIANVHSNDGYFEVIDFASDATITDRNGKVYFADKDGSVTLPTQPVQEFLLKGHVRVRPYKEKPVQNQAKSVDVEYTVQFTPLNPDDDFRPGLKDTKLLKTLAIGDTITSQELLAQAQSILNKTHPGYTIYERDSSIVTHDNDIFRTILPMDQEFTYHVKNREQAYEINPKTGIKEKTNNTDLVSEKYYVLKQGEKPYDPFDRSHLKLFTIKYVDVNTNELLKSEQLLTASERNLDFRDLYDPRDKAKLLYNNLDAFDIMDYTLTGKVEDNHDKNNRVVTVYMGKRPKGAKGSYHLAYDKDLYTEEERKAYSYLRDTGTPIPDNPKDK

[1] = test system: Streptococcus sp. 'group A'; test: growth inhibition of control SK(-) GAS strain, dose response, counter-screen for streptokinase expression inhibitor project, luminescence, kanamycin, BacTiterGlo, confirmation (AID 1900); assay type: functional, organism-based
[2] = NIH-3T3 fibroblast cytotoxicity, dose response, cytotoxicity control, cell-based, fluorescence, Alamar Blue, secondary assay (AID 2327); assay type: functional;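 note: NIH-3T3 mouse fibroblasts cultured with fluconazole at 8 µg/mL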
[3] = C. albicans growth with fluconazole, confirmation, fluorescence, retest (AID 2467); assay type: functional, cell-based
Streptococcus = test: Group A Streptococcus viability loss, dose response, counter-screen for streptokinase expression inhibitor project, luminescence, BacTiterGlo (AID 1915); assay type: functional, organism-based;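 note: potency for reduction of bacterial viability or growth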
Beta-galactosidase = Beta-galactosidase (Escherichia coli, UniProt Q8VNN2); test: beta-galactosidase enzyme inhibitors and activators, dose response, artefact control for CCR6 antagonist project, biochemical, E. coli enzyme, set 3 (AID 504712); assay type: functional
Cytochrome P450 3A4 = Cytochrome P450 3A4 (Homo sapiens, UniProt P08684);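 note: CYP3A4 tested as one member of a cytochrome P450 panel screen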
Cytochrome P450 2C19 = Cytochrome P450 2C19 (Homo sapiens, UniProt P33261); test: Cytochrome panel assay with activity outcomes. Panel member name: p450-cyp2c19 Compounds with AC50 equal or less than 10 uM are considered active; assay type: functional; conditions: read-out: AC50
Protein RecA = biological target: T3, Protein RecA (Mycobacterium tuberculosis, UniProt P9WHJ3); test: Fluorescence Cell-Free Homogeneous Dose Retest to Identify Inhibitors of RecA-Intein Splicing Activity. [Related pubchem assays (depositor defined):AID2097, AID2223, AID489010, AID492950]; assay type: functional
T3 sequence (P9WHJ3 whole entry): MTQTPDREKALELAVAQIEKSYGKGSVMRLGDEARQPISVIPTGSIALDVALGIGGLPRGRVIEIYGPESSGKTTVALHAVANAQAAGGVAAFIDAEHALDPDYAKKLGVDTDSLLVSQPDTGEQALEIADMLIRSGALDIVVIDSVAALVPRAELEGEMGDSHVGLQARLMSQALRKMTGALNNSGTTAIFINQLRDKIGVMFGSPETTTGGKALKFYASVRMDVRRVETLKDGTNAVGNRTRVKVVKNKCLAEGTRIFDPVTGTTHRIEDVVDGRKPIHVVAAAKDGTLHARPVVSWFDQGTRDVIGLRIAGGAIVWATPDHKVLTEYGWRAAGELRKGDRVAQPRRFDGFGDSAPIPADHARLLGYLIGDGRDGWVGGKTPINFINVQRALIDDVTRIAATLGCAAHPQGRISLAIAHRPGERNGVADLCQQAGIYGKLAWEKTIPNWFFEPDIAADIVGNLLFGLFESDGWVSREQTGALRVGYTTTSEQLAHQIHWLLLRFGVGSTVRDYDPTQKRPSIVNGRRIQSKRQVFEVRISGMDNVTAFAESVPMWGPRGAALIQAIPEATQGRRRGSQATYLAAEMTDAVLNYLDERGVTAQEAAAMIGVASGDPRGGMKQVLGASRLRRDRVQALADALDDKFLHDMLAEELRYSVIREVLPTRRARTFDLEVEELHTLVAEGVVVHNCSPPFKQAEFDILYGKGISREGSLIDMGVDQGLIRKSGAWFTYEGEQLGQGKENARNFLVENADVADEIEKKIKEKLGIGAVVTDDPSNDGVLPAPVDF

Cytochrome P450 2D6 = Cytochrome P450 2D6 (Homo sapiens, UniProt P10635);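 note: CYP2D6 member of a cytochrome P450 panel assay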
[4] = biological target: T4, Replicative DNA helicase DnaB (Mycobacterium tuberculosis, UniProt P9WMR3); test: DnaB intein splicing inhibitors, dose response, biochemical, cell-free fluorescence (AID 449749); assay type: functional
T4 sequence (P9WMR3 whole entry): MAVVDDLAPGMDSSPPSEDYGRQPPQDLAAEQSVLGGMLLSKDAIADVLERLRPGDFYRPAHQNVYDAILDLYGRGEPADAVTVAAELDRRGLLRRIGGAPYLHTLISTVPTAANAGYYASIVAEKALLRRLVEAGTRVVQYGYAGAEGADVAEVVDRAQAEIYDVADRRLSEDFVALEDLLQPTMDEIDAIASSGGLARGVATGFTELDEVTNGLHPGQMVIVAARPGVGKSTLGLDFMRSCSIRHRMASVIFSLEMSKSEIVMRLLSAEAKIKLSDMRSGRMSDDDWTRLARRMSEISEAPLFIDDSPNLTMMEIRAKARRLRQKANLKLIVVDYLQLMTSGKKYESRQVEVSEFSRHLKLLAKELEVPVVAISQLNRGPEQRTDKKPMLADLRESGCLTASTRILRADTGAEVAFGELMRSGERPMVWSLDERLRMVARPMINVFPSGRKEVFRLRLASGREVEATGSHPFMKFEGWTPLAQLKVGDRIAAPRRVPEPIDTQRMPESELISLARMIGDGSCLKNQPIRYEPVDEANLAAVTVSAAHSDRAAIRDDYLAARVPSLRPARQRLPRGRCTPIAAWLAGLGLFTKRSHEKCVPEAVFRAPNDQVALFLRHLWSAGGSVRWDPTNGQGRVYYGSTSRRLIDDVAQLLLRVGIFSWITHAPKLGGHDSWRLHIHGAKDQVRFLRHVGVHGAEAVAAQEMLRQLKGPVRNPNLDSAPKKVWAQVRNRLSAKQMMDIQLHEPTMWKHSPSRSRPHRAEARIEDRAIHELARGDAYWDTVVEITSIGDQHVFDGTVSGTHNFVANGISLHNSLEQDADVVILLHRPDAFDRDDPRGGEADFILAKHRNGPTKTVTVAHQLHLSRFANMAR

Bcl-2-like protein 10 = Bcl-2-like protein 10 (Homo sapiens, UniProt Q9HD36); test: displacers of TR3 peptide from Bcl-B, primary screen, selectivity assay for Bfl-1 inhibitor project, biochemical, fluorescence polarization, FITC-TR3 peptide (AID 748);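 note: fluorescence polarization from a fluorescein-labelled TR3 peptide binding purified Bcl-B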
Bcl-2-like protein 10, sequence (Q9HD36 whole entry): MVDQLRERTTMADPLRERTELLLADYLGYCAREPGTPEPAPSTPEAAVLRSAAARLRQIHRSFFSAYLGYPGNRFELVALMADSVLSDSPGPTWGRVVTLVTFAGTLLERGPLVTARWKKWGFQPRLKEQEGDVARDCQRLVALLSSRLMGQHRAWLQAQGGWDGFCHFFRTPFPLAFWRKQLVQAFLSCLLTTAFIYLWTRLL

Cytochrome P450 2D6, sequence (P10635 whole entry): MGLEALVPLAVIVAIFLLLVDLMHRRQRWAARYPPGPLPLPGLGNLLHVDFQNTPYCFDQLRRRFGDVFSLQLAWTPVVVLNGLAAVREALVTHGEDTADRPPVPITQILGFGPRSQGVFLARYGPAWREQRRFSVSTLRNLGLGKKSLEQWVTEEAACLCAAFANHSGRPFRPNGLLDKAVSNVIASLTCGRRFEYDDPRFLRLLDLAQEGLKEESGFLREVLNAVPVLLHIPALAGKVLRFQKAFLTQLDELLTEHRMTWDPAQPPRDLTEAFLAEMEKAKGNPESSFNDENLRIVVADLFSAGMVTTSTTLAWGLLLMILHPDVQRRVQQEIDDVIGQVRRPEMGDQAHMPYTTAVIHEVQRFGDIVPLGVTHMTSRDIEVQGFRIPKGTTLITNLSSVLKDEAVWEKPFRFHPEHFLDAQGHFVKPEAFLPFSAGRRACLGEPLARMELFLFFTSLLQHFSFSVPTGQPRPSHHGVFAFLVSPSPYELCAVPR
Cytochrome P450 3A4, sequence (P08684 whole entry): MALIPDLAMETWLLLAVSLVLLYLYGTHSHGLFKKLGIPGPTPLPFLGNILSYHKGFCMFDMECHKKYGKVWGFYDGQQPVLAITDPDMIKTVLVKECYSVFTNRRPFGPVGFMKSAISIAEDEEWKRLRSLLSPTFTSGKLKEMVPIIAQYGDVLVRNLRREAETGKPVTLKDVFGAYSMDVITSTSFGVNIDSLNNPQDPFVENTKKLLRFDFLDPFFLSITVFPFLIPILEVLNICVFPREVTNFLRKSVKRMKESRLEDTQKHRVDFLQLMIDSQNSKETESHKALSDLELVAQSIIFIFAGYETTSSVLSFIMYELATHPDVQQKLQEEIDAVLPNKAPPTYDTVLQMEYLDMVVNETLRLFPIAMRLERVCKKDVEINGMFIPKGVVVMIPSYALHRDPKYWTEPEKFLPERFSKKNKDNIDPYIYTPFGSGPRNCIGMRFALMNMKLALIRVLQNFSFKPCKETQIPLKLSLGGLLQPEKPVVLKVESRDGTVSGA
Beta-galactosidase, sequence (Q8VNN2 whole entry): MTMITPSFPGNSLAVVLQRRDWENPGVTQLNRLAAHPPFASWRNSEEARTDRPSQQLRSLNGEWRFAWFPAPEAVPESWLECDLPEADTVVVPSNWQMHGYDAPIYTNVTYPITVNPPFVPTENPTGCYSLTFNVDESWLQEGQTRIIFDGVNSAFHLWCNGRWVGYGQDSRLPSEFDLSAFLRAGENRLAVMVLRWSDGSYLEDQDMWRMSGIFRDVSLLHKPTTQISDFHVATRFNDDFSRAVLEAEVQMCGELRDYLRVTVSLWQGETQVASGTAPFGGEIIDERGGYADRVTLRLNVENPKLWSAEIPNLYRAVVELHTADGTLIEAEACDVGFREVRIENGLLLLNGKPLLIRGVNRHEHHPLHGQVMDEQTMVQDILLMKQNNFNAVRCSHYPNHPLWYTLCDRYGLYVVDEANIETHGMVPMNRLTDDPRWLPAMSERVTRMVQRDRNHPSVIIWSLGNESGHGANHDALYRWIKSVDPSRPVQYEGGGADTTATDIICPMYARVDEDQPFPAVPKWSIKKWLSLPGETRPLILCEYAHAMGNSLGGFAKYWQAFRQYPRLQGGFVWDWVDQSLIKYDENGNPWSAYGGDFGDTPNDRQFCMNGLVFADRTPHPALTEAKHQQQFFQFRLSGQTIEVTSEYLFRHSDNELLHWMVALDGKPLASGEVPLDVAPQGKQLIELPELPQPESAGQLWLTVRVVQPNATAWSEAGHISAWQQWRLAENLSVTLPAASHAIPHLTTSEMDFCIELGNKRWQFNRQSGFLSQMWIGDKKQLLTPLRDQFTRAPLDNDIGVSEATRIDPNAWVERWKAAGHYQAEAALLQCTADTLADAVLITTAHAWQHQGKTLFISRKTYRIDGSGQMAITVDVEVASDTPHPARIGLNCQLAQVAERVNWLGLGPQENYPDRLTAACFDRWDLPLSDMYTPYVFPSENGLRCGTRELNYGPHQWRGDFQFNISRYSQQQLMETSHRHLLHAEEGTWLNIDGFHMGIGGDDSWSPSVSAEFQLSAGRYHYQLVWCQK
Cytochrome P450 2C19, sequence (P33261 whole entry): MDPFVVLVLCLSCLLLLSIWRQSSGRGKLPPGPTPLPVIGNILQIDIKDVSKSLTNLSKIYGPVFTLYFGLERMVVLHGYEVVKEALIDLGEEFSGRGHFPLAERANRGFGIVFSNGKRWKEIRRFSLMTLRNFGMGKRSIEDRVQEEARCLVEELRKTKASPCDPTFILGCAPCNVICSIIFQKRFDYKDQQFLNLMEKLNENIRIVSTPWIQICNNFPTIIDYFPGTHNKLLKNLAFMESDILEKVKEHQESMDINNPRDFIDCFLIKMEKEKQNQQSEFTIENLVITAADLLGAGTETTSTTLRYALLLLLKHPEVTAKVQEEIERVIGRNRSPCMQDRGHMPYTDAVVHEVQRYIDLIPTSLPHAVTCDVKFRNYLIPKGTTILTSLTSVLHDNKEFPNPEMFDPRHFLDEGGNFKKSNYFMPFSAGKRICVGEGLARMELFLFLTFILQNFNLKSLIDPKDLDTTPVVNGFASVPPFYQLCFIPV

In the case of `COCCn1c(SCC(N)=O)nnc1-c1c[nH]c2ccccc12`, the IC50 (Coagulation factor XII) is reported as > 50 µM (inactive).

With `Fc1cccc2sc(Nc3nnc(-c4ccco4)o3)nc12` the EC50 (Streptokinase A) was > 150 µM (not active), the EC50 [1] was 0.632 µM (active) and the EC50 [2] was 79.4 µM (active). The EC50 [3] was 2.43 µM (active), the EC50 (Streptococcus) was 11.2 µM (active) and the IC50 (Beta-galactosidase) was > 66.6 µM (inactive).

With `Cc1cnnn1-c1ccc(C(=O)CCl)cc1` the AC50 (Cytochrome P450 3A4) was 25.1 µM (inconclusive), the AC50 (Cytochrome P450 2C19) was 39.8 µM (inconclusive) and the EC50 (Protein RecA) was 11.3 µM (active). The AC50 (Cytochrome P450 2D6) was 0.0794 µM (inconclusive), the AC50 [4] was 29.1 µM (active) and the IC50 (Bcl-2-like protein 10) was > 50 µM (inactive).
